Test results from US20260272988A1, “COMPOSITION COMPRISING MILK EXTRACELLULAR VESICLES AND GALACTOSE” (FrieslandCampina Nederland B.V., priority 2023, published 2026).

Tested on: C2C12 myotubes
Experiment: Seahorse mito-stress test, oxygen consumption rate (OCR) in differentiated C2C12 myotubes
Type: cell-based
Settings: for basal respiration (OCR): C2C12 myotubes exposed 24 hours, compared to control and vehicle control (PBS), FIG. 1 / FIG. 2
Description: The execution of the “Seahorse” experiment as used in this example is explained in more detail in Traba et al. (2016) J. Vis. Exp. (117), e54918 especially in FIG. 1 and text relating thereto, and in Rose S, et al. (2014) Oxidative Stress Induces Mitochondrial Dysfunction in a Subset of Autism Lymphoblastoid Cell Lines in a Well-Matched Case Control Cohort. PLoS ONE 9(1): e85436. doi:10.1371/journal.pone.0085436. Briefly, in the Seahorse essay, the Oxygen Consumption Rate (OCR) is measured before and after the addition of inhibitors to derive several parameters of mitochondrial respiration. Initially, baseline cellular OCR is measured, from which basal respiration can be derived by subtracting non-mitochondrial respiration. Next oligomycin, a complex V inhibitor, is added and the resulting OCR is used to derive ATP-linked respiration (by subtracting the oligomycin rate from baseline cellular OCR) and proton leak respiration (by subtracting non-mitochondrial respiration from the oligomycin rate). Next carbonyl cyanide-p-trifluoromethoxyphenyl-hydrazon (FCCP), a protonophore, is added to collapse the inner membrane gradient, allowing the ETC to function at its maximal rate, and maximal respiratory capacity is derived by subtracting nonmitochondrial respiration from the FCCP rate. […] Mitochondrial reserve capacity is calculated by subtracting basal respiration from maximal respiratory capacity. C2C12 cells were routinely cultured in High Glucose Dulbecco's Modified Eagle's Medium (DMEM) supplemented with 10% (v/v) fetal calf serum (FCS), 2 mM glutamine, 25 mM HEPES pH 7.2 and 1% (v/v/v) pen/strep/amphotericin B at 5% CO2 and 37 degrees Celsius. For Seahorse experiments, C2C12 myoblasts (passage 10-20, ATCC) were plated in the morning in XFe96 Seahorse culture plates at a density of 30.000 cells/well. Cells were kept in the flow cabinet for 1 h before being transferred to the incubator. After approximately 6-8 h cells, culture medium was replaced with C2C12 differentiation medium (DMEM with 2% horse serum). C2C12 cells were allowed to differentiate for 5 to 7 days. On the day before the Seahorse run, myotubes were exposed to different nutrients and/or Extracellular Vesicles (mEVs) for 24 hours. Exposure medium was prepared in C2C12 differentiation medium. Galactose and glucose were supplemented to differentiation medium from 1M stocks in H2O. […] In detail, following calibration and equilibration, plates were analyzed in measure/mix cycles of 3 minutes/2 minutes, respectively, in 180 ul Seahorse assay medium. […] In the final injection the nuclear fluorescent stain, Hoechst (40 uM), was also injected, to allow for cell number quantification. […] Images were analyzed using in-house generated scripts in ImageJ and R for processing data. […]

Row | Structure (SMILES) | basal respiration (OCR) | effect of a higher concentration on basal respiration (C2C12 myotubes, 1.4, 2.75, 5.5 mM, FIG. 2)
1 | O=C[C@H](O)[C@@H](O)[C@@H](O)[C@H](O)CO [Sample 6, Galactose] | increase | 
2 | O=C[C@H](O)[C@@H](O)[C@@H](O)[C@H](O)CO [Sample 7, Galactose] | increase | 
3 | O=C[C@H](O)[C@@H](O)[C@@H](O)[C@H](O)CO [Sample 8, Galactose] | increase | 
4 | O=C[C@H](O)[C@@H](O)[C@@H](O)[C@H](O)CO [galactose, D-galactose] |  | increases
